# Experimental data reported in patent US5716950A, “Diazacycloalkanealkylsulfonamide derivatives” (Nippon Shoji Kabushiki Kaisha, priority 1994, dated 1998).
# Read-outs that look alike come from different tables or passages of the source.
# Columns and labels:
# [1] = test system: passive cutaneous anaphylaxis (PCA); test: Activity of suppressing passive cutaneous anaphylaxis (PCA); assay type: in vivo, Male Wistar rats; details: Rattus norvegicus, po, 1 h, 10 mg/kg-po, 1 hour before antigen challenge; read-out: % suppression of rat PCA
# Method: Test compounds were examined on their antiallergic activities. […] After 48 hours, 1.0 ml of 0.5 % Evans Blue saline solution containing DNP.BSA (1 mg in protein) was injected through the tail vein to induce allergic reaction. After 30 minutes, the rats were sacrificed by bleeding and the skin of back where dye was leaked out was flayed and put it into 20 ml test tube with ground stopper. Thereto was added 1.0 ml of 1N KOH aqueous solution and then it was allowed to stand at 37° C. in incubator overnight for lysing. To this solution was added 8.3 ml of a mixture of acetone and 0.6N phosphoric acid (13:5) and the mixture was mixed well and then was filtered to remove the insoluble materials.
# The test compounds were administered orally 1 hour before the antigen challenge. Suppression rate was expressed by percentage to the value in control where 0.5% aqueous methylcellulose solution was orally administered.
# male ICR mice = test: Toxicity Test (mouse acute toxicity, minimum lethal dose); assay type: in vivo; details: po, observed for 24 hours, head prints (10 mg/kg-po)
# Text: The test compounds were orally administered to male ICR mice (weighing to 30 g) after fasting overnight. […] The results were expressed by minimum lethal dose. Toxicity of any compounds of the present invention were weaker than that of ketotifen which was a reference compound.
# [2] = test system: mouse biphasic allergic dermal reaction; test: Mouse Biphasic Allergic Dermal Reaction; assay type: in vivo, Female Balb/c mice; details: for inhibition in vivo at 0.1 mg/kg / inhibition in vivo at 1 mg/kg: Mus musculus, oral
# Method: Female Balb/c mice (weighing 18 to 25 g) were subjected to passive sensitization by intravenous administration of 1 ml of anti-DNP monoclonal IgE antibody showing 1:1024 of antibody titer. 24 hours after the sensitization, 25 μl of 0.15% dinitrofluorobenzene (DNFB) were applied to both sides of right and left auricles of mouse for inducing allergic reactions. Thickness of auricles were measured using Dial Thickness Gauge before the challenge with DNFB, and 1 and 24 hours after the challenge. And then, increase in thickness of auricles at 1 hour after the challenge (edema caused by immediate allergic reaction) and that at 24 hours after the challenge (edema caused by late allergic reaction) were calculated against the thickness of auricles before the challenge with DNFB, respectively.
# Suppression rate was expressed by relative ratio (%) to the value in control in which a solvent was administered.
# Test compounds, diphenhydramine which is a existing classical antihistamic drug, amlexanox which is an antiallergic drug and dexamethasone which is a steroidal drug were administered orally (partly intraperitoneally) once before antigen challenge.
# The above test was performed by using a mouse biphasic allergic dermal reaction model which was a new model [see, Sakurai T, Inagaki, N. and Nagai, H Life Sci., 54, PL291-295 (1994)]. In this model, the immediate allergic reaction was induced by mediator release from mast cell at 1 hour after the challenge, and the late allergic reaction with inflammatory cells such as eosinophil (edema after 24 hours) was induced after 24 hours from the challenge.
# [3] = test system: extracted ileum (histamine contraction); test: Antihistaminic activity: suppression of histamine-induced contraction of extracted ileum; design: species or system Female Hartley guinea pig; details: histamine 3×10^-7 M; guinea pig ileum; 50% suppression of contraction; read-out: anti-His in extracted ileum EC50
# Method: Female Hartley guinea pig (weighing 500 to 650 g) were sacrificed and the ileum (length of about 10 to 25 cm) was extracted from the ileocecum to prepare a specimen (length of 3 cm). […] After allowing to stand for 60 minutes to make the specimen stable, a histamine (3×10^-7 M) was applied to the specimen at single application. Contraction of the specimen was determined and recorded using isotonic transducer. After repeating application of a histamine to make the contraction constant, a diluted solution of the test compound was applied. Three minutes after the application, a histamine was then added and an activity of suppressing contraction was examined.
# [4] = 1 h, read-out: immediate edema (1 hr) suppression (%)
# [5] = 24 h, read-out: late edema (24 hr) suppression (%)
smiles,measurement,setting,value
O=S(=O)(CCCCCCN1CCN(C(c2ccccc2)c2ccc(Cl)cc2)CC1)NC1CCCCC1 (centres unmarked) [Example 143],inhibition in vivo at 10 mg/kg,[1],87.8%
same,mouse acute toxicity (lethal dose),male ICR mice,> 500 mg/kg
same,inhibition in vivo at 0.1 mg/kg,[2]; [4],24%
same,inhibition in vivo at 1 mg/kg,[2]; [4],40%
same,inhibition in vivo at 0.1 mg/kg,[2]; [5],4%
same,inhibition in vivo at 1 mg/kg,[2]; [5],28%
same,suppression of the late allergic reaction (in words),[2]; edema after 24 hours,showed strong activity of suppressing the late allergic reaction
same,EC50,[3],2800 nM
